Data taken from patent US20050043178A1, “Herbicidal and bacteriostatic compounds from centaurea maculosa” (Colorado State University Research Foundation, priority 2001, published 2005).
Entries after “also recorded” stand apart in the source; their conditions may differ.

Experiments:
[1] = test system: Arabidopsis thaliana shoot cultures; assay: Phytotoxicity (MIC, shoot and root differentiation) on Arabidopsis thaliana in MS basal medium; type: in vivo; conditions: for minimum inhibitory concentration (MIC): Arabidopsis thaliana shoot cultures in vitro
Description: (§1) Catechin and 2, 4-D were administered in MS basal medium at different concentration range (1-200 μg ml^−1) to check for the minimum inhibitory concentration (MIC). i) 10 μg ml^−1; ii) 60 μg ml^−1; iii) 100 μg ml^−1. • B) Effect of catechin on shoot and root differentiation in A. thaliana plants on the 14th day. Catechin was compared for phytoxicity against 2, 4-D and was administered at 100 μg ml^−1 concentration in MS basal medium (5 ml). Treatments were as follows: 1) Untreated control; 2) (+)-catechin; 3) (−)-catechin; 4) (±)-catechin; 5) (+/−) co-administered catechin; 6) (±) catechin isolated from root exudates of C. maculosa; 7) 2, 4-D. [Means of different letters at the top of each bar indicate significant difference (p<0.05) (SEM±52df)]. • C) Antibacterial activity of (+)-catechin on different bacterial strains. i) Tube antibacterial assay. 1) Control (without (+)-catechin); 2) (+)-catechin 100 μg ml^−1; 3) (+)-catechin 150 μg ml^−1; 4) (+)-catechin 200 μg ml^−1. Bacterial cultures were grown overnight at 24° C. in liquid LB media to an optical density of 0.2 at 600 nm. Different concentrations (100-200 μg ml^−1) of (+)-catechin were administered to the bacteria-containing LB media. Optical density at 600 nm was checked after 24 hrs of incubation to measure bacterial inhibition in tubes. Antibacterial activity was assayed on both tubes and 35 mm plates. ii) Antibacterial activity of (+)-catechin on Pseudomonas fluorescens analyzed in a petri dish assay. Treatments on petri dish refers to the following concentrations: 1) Methanol ((+)-catechin solvent) was used as a control; II) (−)-catechin (100 μg ml^−1); III) (+)-catechin (100 μg/ml); IV) (±)-catechin (200 μg ml^−1); V) (±)-catechin (200 μg ml^−1) isolated from root exudates of C. maculosa.
Root exudates of in vitro-grown C. maculosa plants were assayed for their effects on the phenotypic response and germnination efficiency of various weeds, including Linaria dalmatica (Dalmatian toadflax), Verbascum thapsus (common mullein), Bromos tectorum (downy brome), Kochia scoparia (kochia), Centaurea diffusa (diffuse knapweed), the model plant Arabidopsis thaliana and crops such as wheat (Triticum aestivum) and tomato (Lycopersicon esculentum). Ten day old seedlings and seeds of C. maculosa, L. dalmatica, V. thapsus, B. tectorum, K. scoparia, C. diffusa, A. thaliana, T. aestivum and L. esculetum were placed on MS basal medium in petri dishes after initial surface sterilization. Petri dishes were kept under a 16 hour light and 8 hour dark photoperiod in an incubator (Lab-Line). An additional objective was to check the effect of allelochemicals from C. maculosa on growth and differentiation of food crops such as Triticum aestivum (Wheat) and Lycopersicon esculetum (Tomato). This was of interest as wheat is known to produce an allelopathic effect in its root exudates (H. Wu, T. Haig, J. Prateley, D. Lemerle, M. An, J. Food Agric Chem. 48, 5321 (2000)). Root exudates collected from non-elicited and elicited cultures of C. maculosa were administered in different concentrations (1-3 ml v/v) over the surface sterilized seeds and seedlings to analyze their phytotoxic effects. […] After incubation, growth parameters such as length of shoots, number of shoots and length of primary root of the treated and untreated plants were measured. […]

C. maculosa = assay: Effect on C. maculosa itself (autotoxicity); type: in vivo, Centaurea maculosa; conditions: FIG. 1(b and c)
Description: (§2) Root exudates collected from non-elicited cultures of C. maculosa were administered in different concentrations (1-3 ml v/v) in the MS basal liquid media containing different seedlings to analyze phenotypic explant response. ii) Effect of fungal cell wall (CWE) elicited root exudates of C. maculosa on shoots and root differentiation of different weeds and crop plants on 14th day. Fungal cell wall extracts (CWE) from Phytophthora cinnamoni and Rhizoctonia solani were used. Data represents the percent inhibition as compared to the untreated control in shooting and rooting response in various tested seedlings against non-elicited and elicited root exudates of C. maculosa. The seedlings tested against C. maculosa exudates were as follows:1: C. maculosa; 2: L. dalmatica; 3: V. thapsus; 4: B. tectorum, 5: K. scoparia; 6: C. diffusa; 7: A. thaliana 8: T. aestivum; 9: L. esculentum. [Means of different letters at the top of each bar indicate significant difference (p<0.05) (SEM±52df)]. • B) Effect of purified HPLC-fraction from C. maculosa root exudates on morphological differentiation of various weeds and food crops. HPLC peaks were collected and administered into 5 ml MS basal medium at 100 μg ml^−1 concentration; fractions were added in different permutations. i) C. maculosa; ii) C. diffusa; iii) K scoparia; iv) L. dalmatica; v) A.thaliana; vi) T. aestivum. […]

soil borne bacteria = assay: Antibacterial assay on soil borne bacteria (six strains); type: cell-based; conditions: six bacterial strains / soil-borne pathogens tested
Description: as §1
(§3) Antibacterial plate assay was performed on a bacterial culture grown overnight; both the enantiomers and the racemic catechin were added to the paper discs and allowed to dry under laminar hood conditions. […] Visual observations for inhibition zone were recorded after 24 hrs. […]

[2] = test system: Agrobacterium rhizogenes (15834); assay: Tube antibacterial assay (OD 600 nm after 24 hrs); type: cell-based; conditions: even at higher concentrations
Description: as §1, §3

Xanthomonas campestris = assay: Tube antibacterial assay (OD 600 nm after 24 hrs); type: cell-based; conditions: 100-200 μg/ml
Description: as §1, §3

Erwinia carotovora = assay: Tube antibacterial assay (OD 600 nm after 24 hrs); type: cell-based; conditions: 100-200 μg/ml
Description: as §1, §3

Pseudomonas fluorescens = assay: Tube and plate antibacterial assay; type: cell-based; conditions: 100-200 μg/ml, 24 hrs
Description: Catechin and 2, 4-D were administered in MS basal medium at different concentration range (1-200 μg ml^−1) to check for the minimum inhibitory concentration (MIC). i) 10 μg ml^−1; ii) 60 μg ml^−1; iii) 100 μg ml^−1. • B) Effect of catechin on shoot and root differentiation in A. thaliana plants on the 14th day. Catechin was compared for phytoxicity against 2, 4-D and was administered at 100 μg ml^−1 concentration in MS basal medium (5 ml). Treatments were as follows: 1) Untreated control; 2) (+)-catechin; 3) (−)-catechin; 4) (±)-catechin; 5) (+/−) co-administered catechin; 6) (±) catechin isolated from root exudates of C. maculosa; 7) 2, 4-D. [Means of different letters at the top of each bar indicate significant difference (p<0.05) (SEM±52df)]. • C) Antibacterial activity of (+)-catechin on different bacterial strains. i) Tube antibacterial assay. […] Antibacterial activity was assayed on both tubes and 35 mm plates. ii) Antibacterial activity of (+)-catechin on Pseudomonas fluorescens analyzed in a petri dish assay. […]
as §3

[3] = test system: various weeds and crop plants; assay: Phytotoxic effect on seedlings of weeds and crop plants; type: in vivo; conditions: incl. C. diffusa
Description: as §2

Compound: Oc1cc(O)c2c(c1)OC(c1ccc(O)c(O)c1)C(O)C2 (racemic) [(±)-catechin]
- minimum inhibitory concentration (MIC) [1]: about 100 μg/ml
- effect compared with root exudated (±)-catechin ([1]; commercially available racemate, FIG. 2(a and b)): same effect as root exudated (±)-catechin
- resistance of C. maculosa (C. maculosa): strongly resistant

Compound: O=C(O)COc1ccc(Cl)cc1Cl [2,4-D, 2,4-dichlorophenoxyacetic acid, reference compound]
- minimum inhibitory concentration (MIC) [1]: 10 µg/mL

Compound: Oc1cc(O)c2c(c1)O[C@H](c1ccc(O)c(O)c1)[C@@H](O)C2 [(+)-catechin]
- antibacterial activity (soil borne bacteria): antibacterial activity against root infesting pathogens; also recorded: most showed a degree of inhibition
- allelochemical activity / phytotoxicity ([1]; A. thaliana, FIGS. 2 a, b): not phytotoxic; also recorded: did not show allelochemical activity
- inhibition of growth [2]: not affected
- inhibition of growth (decrease in optical density) (Xanthomonas campestris): distinct inhibition of growth
- inhibition of growth (decrease in optical density) (Erwinia carotovora): distinct inhibition of growth
- inhibition of growth (decrease in optical density) (Pseudomonas fluorescens): distinct inhibition of growth

Compound: (−)-catechin [(−)catechin]
- antibacterial activity (soil borne bacteria): failed to show any antibacterial activity
- antibacterial activity (soil borne bacteria; listed as (−)-catechin): does not show
- doses accounting for the allelochemical activity (as low as) ([1]; A. thaliana, FIGS. 2 a, b): 50 to 60 µg/mL
- spectrum of phytotoxicity / allelochemical activity [3]: broad-spectrum phytotoxicity
